Assay results taken from PubChem BioAssay AID540269 (Sanford-Burnham Center for Chemical Genomics, 2011).
Activity calls are given as the source filed them. How the calls were made is not given here.

Target: glucose-6-phosphate dehydrogenase-6-phosphogluconolactonase (Plasmodium falciparum 3D7)
Experiment: PfG6PD enzyme inhibitors, kinetic NADPH readout, dose response, orthogonal assay, biochemical, kinetic NADPH detection (AID 540269)
Conditions: purified PfG6PD-6PGL

With `COc1ccccc1NS(=O)(=O)c1cc(NC(=O)c2ccc(Cl)nc2)ccc1N1CCCC1` the IC50 was 32.1 µM.
In the case of `Cc1ccc2nc(SCC(=O)N/N=C/c3ccco3)cc(C)c2c1`, the IC50 is reported as > 80 µM (inactive).
With `CN(C)c1ccc(C=c2c3ccccc3n3c2c2ccccc2[n+]3C)cc1` the IC50 was 32.8 µM.
In the case of `CC(NC1=CC(=O)c2cccnc2C1=O)C(O)c1ccccc1` (stereo not given), the IC50 is reported as 45.1 µM.
`O=C1C=CC(=O)N1c1ccc(N2CCCCC2)cc1` gave an IC50 of 37 µM.
For `C=CCN1CCc2cccc3c2[C@H]1Cc1ccc(O)c(O)c1-3`, the IC50 was > 80 µM (inactive).
For `COc1cccc(/C=N/NC(=O)c2c(C)nc3ccc(Br)cn23)c1`, the IC50 was 52.3 µM.
`CN1CC[C@@]2(C)c3cc(O)ccc3N(C)[C@@H]12` showed an IC50 of 46.7 µM.
For `O=[N+]([O-])c1c(NCCCO)cc(Sc2nc3ccccc3s2)c2nonc12`, the IC50 was 73.7 µM.
In the case of `O=c1[nH]sc2cc(F)ccc12`, the IC50 is reported as 56.2 µM.
For `[O-]/[N+](=C\c1ccccc1)c1ccc(Br)cc1`, the IC50 was > 80 µM (inactive).
`Cc1ccc(-c2c(C(=O)N/N=C/c3ccc(C)o3)nnn2-c2nonc2N)cc1` gave an IC50 of 51.3 µM.
For `COC(=O)[C@H](CCSC)NC(=O)c1cc2c(cn1)[nH]c1ccccc12`, the IC50 was 20.2 µM.
Compound `O=S(c1ccccc1O)S(=O)c1ccccc1O` (stereo not given) has an IC50 of 36.4 µM.
`COc1ccc(-n2sc3ccccc3c2=O)cc1` was tested, and the IC50 was 14.7 µM.
For `COc1ccc(NC(C)C(=O)N/N=C/c2cc(Br)ccc2OC)cc1` (stereo not given), the IC50 was > 80 µM (inactive).
In the case of `O=c1ccsn1Cc1ccccc1`, the IC50 is reported as 57.9 µM.
`COc1ccc(NS(=O)(=O)c2ccc(N3CCCC3)c(NC(=S)Nc3cccc(C)c3C)c2)cc1` was tested, and the IC50 was > 80 µM (inactive).
For `CC(=O)Nc1cc2c(cc1[N+](=O)[O-])-c1ccccc1C2O` (stereo not given), the IC50 was > 80 µM (inactive).
In the case of `Cc1ccc(S(=O)(=O)NNc2ccccc2)cc1`, the IC50 is reported as 54.1 µM.
`O=C(CCl)NCCN1C(=O)S/C(=C\c2cccnc2)C1=O` was tested, and the IC50 was > 80 µM (inactive).
In the case of `CC(C)Nc1ccc(Nc2ccccc2)cc1`, the IC50 is reported as > 80 µM (inactive).
`O=S(=O)(Nc1cc(Sc2cccc3cccnc23)c(O)c2ccccc12)c1ccc(F)cc1` was tested, and the IC50 was 59.4 µM.
`O=c1c2cc([N+](=O)[O-])ccc2sn1-c1ccccc1` showed an IC50 of 15.9 µM.
`CC(C)c1nnc(NC(=O)c2cc3ccccc3o2)s1` was tested, and the IC50 was 31.2 µM.
Compound `CN(C)c1ncc(C2=C(Cl)C(=O)C(N3CCCC3)=C(Cl)C2=O)s1` has an IC50 of 35.6 µM.
`COc1cc(N=Cc2c(CO)cnc(C)c2O)cc(OC)c1OC` gave an IC50 of 30.5 µM.
`O=c1c2ccccc2sn1-c1ccccc1` showed an IC50 of 9.73 µM.
`COc1c(O)c(O)c2oc(-c3ccccc3)cc(=O)c2c1OC` showed an IC50 of 66.9 µM.
`O=S(=O)(Nc1cccc2cccnc12)c1ccccc1` was tested, and the IC50 was 20.9 µM.
In the case of `Oc1ccc(/C=N/N=C(c2ccccc2)c2ccccc2)c(O)c1O`, the IC50 is reported as 54.6 µM.
`CC1=CC(C)(C)Nc2ccc(OC(=O)CN3C(=O)c4cccc5cccc(c45)C3=O)cc21` showed an IC50 of 76.9 µM.
Compound `OCc1ccccc1SSc1ccccc1CO` has an IC50 of 53.1 µM.
Compound `CCn1c2ccccc2c2cc(/C=N/n3cn[nH]c3=S)ccc21` has an IC50 of 9.07 µM.
With `CN1CCc2cccc3c2[C@H]1Cc1ccc(O)c(O)c1-3` the IC50 was > 80 µM (inactive).
For `COc1ccc(-c2cn3cc(C)ccc3n2)cc1Br`, the IC50 was > 80 µM (inactive).
In the case of `COc1cc(CNc2ccc(N3CCCC3)cc2)cc(Cl)c1OC`, the IC50 is reported as > 80 µM (inactive).
`CNCc1ccccc1Sc1cc(O)ccc1O` gave an IC50 of 54.5 µM.
With `CCCCOc1ccc(Cc2n[nH]c(=S)n2N)cc1` the IC50 was > 80 µM (inactive).
In the case of `O=c1c2ccccc2sn1-c1ccc(S(=O)(=O)N2CCCCC2)cc1`, the IC50 is reported as > 80 µM (inactive).
`COc1cc(CN2CCCC(C(=O)c3ccc4c5c(cccc35)CC4)C2)cc(OC)c1O` (stereo not given) gave an IC50 of 28.4 µM.
With `O=C(CSc1nc2ccc(Cl)cc2[nH]1)NC1CCCc2ccccc21` (stereo not given) the IC50 was > 80 µM (inactive).
For `O=C(CCc1ccc(O)c(O)c1)N/N=C/c1cc2c(cc1[N+](=O)[O-])OCO2`, the IC50 was 16.6 µM.
`CCOC(=O)c1c(C2COc3ccccc3O2)csc1NC(=O)c1ccco1` (stereo not given) was tested, and the IC50 was > 80 µM (inactive).
For `O=C(CCC(=O)OCC(=O)c1ccc([N+](=O)[O-])cc1)Nc1ccccc1Cl`, the IC50 was > 80 µM (inactive).
For `C=CCOc1c(Cl)cc(CNc2ccc(N(C)C)cc2)cc1OC`, the IC50 was 61.5 µM.
For `CC1CCc2[nH]c3ccc(C(=O)N(C)CC(=O)Nc4ccccc4C(F)(F)F)cc3c2C1` (stereo not given), the IC50 was > 80 µM (inactive).
For `COC(=O)C1=C(C(=O)OC)SC2(S1)C(C(=O)OC)=C(C(=O)OC)Sc1c2ssc1=O`, the IC50 was > 80 µM (inactive).
With `COC(=O)CCC(=O)OC1(C)C(=O)C2=CN(c3ccccc3)C(c3ccc(OC)cc3)=CC2=C(Br)C1=O` (stereo not given) the IC50 was > 80 µM (inactive).
In the case of `Cc1cc(O)c(C(C)C)cc1N=Cc1ccccc1[N+](=O)[O-]`, the IC50 is reported as > 80 µM (inactive).
In the case of `COc1cc(-c2nnc3n2N=C(c2ccccc2)CS3)cc(OC)c1OC`, the IC50 is reported as > 80 µM (inactive).
With `COc1cccc(C(=O)Nc2nnc(S(=O)(=O)N(C)Cc3ccccc3)s2)c1` the IC50 was 18.6 µM.
For `Cc1ccc2nc(-c3ccc(NC(=S)NC4CC(C)(C)NC(C)(C)C4)cc3)sc2c1`, the IC50 was > 80 µM (inactive).
With `Cc1cc(N=NC(=O)c2ccccc2O)c2ccccc2c1O` the IC50 was > 80 µM (inactive).
For `C[n+]1c(-c2ccccc2)cc2c(=Cc3ccc([N+](=O)[O-])cc3)c3ccccc3n21`, the IC50 was 51.5 µM.
With `O=C(O)C(Cc1ccccc1)N1C(=O)C=CC1=O` (stereo not given) the IC50 was 36.2 µM.
`Cc1nc2c(o1)C(=O)c1ccccc1C2=Nc1ccccc1` was tested, and the IC50 was > 80 µM (inactive).
In the case of `C=CCN1C=C2C(=O)C(C)(OC(=O)CCC(=O)OC)C(=O)C(Br)=C2C=C1c1ccc(OC)cc1` (stereo not given), the IC50 is reported as > 80 µM (inactive).
Compound `O=c1c2ccccc2sn1-c1ccc(Cl)cc1` has an IC50 of 17.1 µM.
For `CC1(OC(=O)C2CCCC2)C(=O)C=C2C=C(c3ccsc3)N(CC3CC3)C=C2C1=O` (stereo not given), the IC50 was > 80 µM (inactive).
Work on `Cc1ccc(SC2=C(Sc3ccc(C)cc3)C(=O)c3ccccc3C2=O)cc1` yielded an IC50 of 34.7 µM.
`Nc1ccc(N(CCO)CCO)cc1` was tested, and the IC50 was > 80 µM (inactive).
In the case of `CN(C)Cc1cc(O)c(CN(C)C)cc1O`, the IC50 is reported as 25.6 µM.
In the case of `CCOC(=O)c1ccc(-n2c(N)c(C(=O)NCC3CCCO3)sc2=S)cc1` (stereo not given), the IC50 is reported as > 80 µM (inactive).
For `O=C(Nc1nnc(S(=O)(=O)N2CCCCCC2)s1)c1cccc(Br)c1`, the IC50 was 14.1 µM.
`CCCNC(=O)Cn1sc2nc(C)cc(C)c2c1=O` showed an IC50 of 51.1 µM.
For `CN1C(=O)C(N=Nc2ccc([N+](=O)[O-])cc2)SC1=S` (stereo not given), the IC50 was > 80 µM (inactive).
With `COc1ccccc1N1CSC2=C(C#N)C(c3ccc(SC)cc3)CC(=O)N2C1` (stereo not given) the IC50 was 62.6 µM.
`CC(=O)Nc1ccc(S(=O)(=O)/N=C2\C(=O)c3ccccc3C([O-])=C2n2cc[n+](-c3ccccn3)c2)cc1` was tested, and the IC50 was > 80 µM (inactive).
`C#CCCc1cscc1/C=[N+](\[O-])c1ccc(C(=O)OCC)cc1` showed an IC50 of 36.4 µM.
`CN(C)C=Nc1ccc2nc3c(cc2c1)[nH]c1ccccc13` was tested, and the IC50 was > 80 µM (inactive).
For `O=c1c2ccccc2sn1-c1ccccc1F`, the IC50 was 15.5 µM.
`O=C(CNC(=O)c1cccs1)OCC(=O)c1ccc([N+](=O)[O-])cc1` was tested, and the IC50 was > 80 µM (inactive).
For `COc1ccc(CCn2c(NN=C3CCCC3)nc3c2c(=O)[nH]c(=O)n3C)cc1`, the IC50 was > 80 µM (inactive).
In the case of `C=CCOc1ccc(CNc2ccc3[nH]c(=O)[nH]c3c2)cc1OC`, the IC50 is reported as > 80 µM (inactive).
With `O=C1C(c2cc(=O)c3ccccc3[nH]2)=C(O)c2ccccc21` the IC50 was > 80 µM (inactive).
`COc1cc(/C=C2\SC(c3ccc(C)cc3)=NC2=O)ccc1O` was tested, and the IC50 was > 80 µM (inactive).
`Cn1c(=O)c2[nH]c(-c3ccccc3)c(O)c2n(C)c1=O` was tested, and the IC50 was > 80 µM (inactive).
With `C=CCSc1nc2sc3c(c2c(=O)n1CC)CCc1ccccc1-3` the IC50 was > 80 µM (inactive).
Work on `Cc1cccc(C(=O)Nc2nnc(S(=O)(=O)N3CCCCCC3)s2)c1` yielded an IC50 of 16.9 µM.
`CN=c1nc(-c2ccccc2)n(-c2ccccc2)s1` gave an IC50 of 20.6 µM.
For `O=C(O)c1cccc(N2C(=O)C=CC2=O)c1`, the IC50 was 55.2 µM.
`CCC1(C)CC(C(N)=S)CCO1` (stereo not given) was tested, and the IC50 was > 80 µM (inactive).
For `Cc1ccc(CNc2ccc(O)cc2)cc1`, the IC50 was 45.1 µM.
For `Cc1ccc(-n2c(N)c(C(=O)N3CCN(C)CC3)sc2=S)cc1`, the IC50 was 70.6 µM.
In the case of `CCc1nnc(NC(=O)c2ccc(Cl)nc2)s1`, the IC50 is reported as > 80 µM (inactive).
`Cc1cc(C)c2c(=O)n(CC(=O)Nc3ccc(Br)c(C)c3)sc2n1` gave an IC50 of 58.5 µM.
`CN(C)c1nc(=NCc2cccs2)ss1` was tested, and the IC50 was > 80 µM (inactive).
`Cc1ccc(/C=C/C(=O)Nc2ccc([N+](=O)[O-])c(NC(=O)/C=C/c3ccc(C)o3)c2)o1` was tested, and the IC50 was > 80 µM (inactive).
`Cc1ccccc1-n1c(-c2ccc3ccccc3n2)n[nH]c1=S` was tested, and the IC50 was 51.3 µM.
Work on `COc1cccc(/C=N/NC(=O)CSc2cccc3cccnc23)c1` yielded an IC50 of 21.7 µM.
In the case of `Nc1ccc(S(=O)(=O)c2cc(O)c3ccccc3c2O)cc1`, the IC50 is reported as > 80 µM (inactive).
`O=C(Nc1nnc(C2CC2)s1)c1ccc(Cl)nc1` was tested, and the IC50 was 70.1 µM.
With `Cc1ccc(NC(=O)Cn2sc3nc(C)cc(C)c3c2=O)c(Cl)c1` the IC50 was > 80 µM (inactive).
`Cc1cc(C)c2c(=O)n(CC(=O)Nc3cccc(Cl)c3C)sc2n1` was tested, and the IC50 was 49.6 µM.
For `CCCCCCCCn1sccc1=O`, the IC50 was 66.4 µM.
With `CCOC(=O)Cc1cc(=O)n2[nH]c(C(C)(C)C)cc2n1` the IC50 was > 80 µM (inactive).
With `CN(C)c1cccc2c1c(NC(=O)c1ccc(Cl)cc1)nn2C` the IC50 was > 80 µM (inactive).
With `Cc1cc(C)c2c(=O)n(CC(=O)Nc3ccc(Cl)cc3)sc2n1` the IC50 was > 80 µM (inactive).
For `COCCn1nnnc1C(c1cc2cc(OC)c(OC)cc2[nH]c1=O)N1CCN(c2ccc(O)cc2)CC1` (stereo not given), the IC50 was 30.3 µM.
`CCOc1cc(CNc2ccc(N3CCCC3)cc2)cc(Cl)c1OC` was tested, and the IC50 was > 80 µM (inactive).
`CCN1CCN(C(=S)c2ccc(O)cc2)CC1` was tested, and the IC50 was > 80 µM (inactive).
`O=C(CN1CCN(c2ccc(O)cc2)CC1)Nc1cc(S(=O)(=O)N2CCOCC2)ccc1Cl` was tested, and the IC50 was > 80 µM (inactive).
For `COc1cc(Sc2ccc(C)cc2)c(OC)cc1N`, the IC50 was > 80 µM (inactive).
For `Cc1ccccc1OCC(=O)N/N=C/c1ccc(Sc2nc3ccccc3s2)o1`, the IC50 was > 80 µM (inactive).
In the case of `C=CCc1ccccc1OCC(=O)N/N=C/c1ccccc1OCC`, the IC50 is reported as > 80 µM (inactive).
In the case of `CCc1cc(-c2n[nH]c(C)c2-c2ccccc2Cl)c(O)cc1OC`, the IC50 is reported as > 80 µM (inactive).
Work on `C/C(Cn1nnc([N+](=O)[O-])n1)=N\NC(=O)c1ccccc1O` yielded an IC50 of 46.3 µM.
In the case of `Cc1ccccc1OCC(=O)NCC(=O)OCC(=O)c1ccc([N+](=O)[O-])cc1`, the IC50 is reported as 67.4 µM.
`O=C(Cn1sc2ccccc2c1=O)Nc1ccccc1` showed an IC50 of 14.3 µM.
